The test concerns GM1 production in Jurkat cells. The test is described as follows: cells. The class given is cell-based. The conditions noted are these: Homo sapiens, Jurkat, 72 h.

pIC50: −log10 of the molar value.

For orientation: pIC50 means −log10 of the IC50, conventionally taken in molar units. Low values mean a high IC50, high ones a low IC50.

With `O=C(NC1CCc2cc(-c3ccc(F)cc3)ccc21)O[C@@H]1CN2CCC1CC2` (stereo partly drawn) [Example 1, (S)-quinuclidin-3-yl (5-(4-fluorophenyl)-2,3-dihydro-1H-inden-1-yl)carbamate], the pIC50 is 6.86. Take `O=C(NC1CCc2cc(-c3ccc(Cl)cc3)ccc21)O[C@@H]1CN2CCC1CC2` (stereo partly drawn) [Example 2, (S)-quinuclidin-3-yl (5-(4-chlorophenyl)-2,3-dihydro-1H-inden-1-yl)carbamate]: the pIC50 is 6.70. Compound `O=C(NC1CCc2cc(-c3ccc(C(F)(F)F)cc3)ccc21)O[C@@H]1CN2CCC1CC2` (stereo partly drawn) [Example 3, (S)-quinuclidin-3-yl (5-(4-(trifluoromethyl)phenyl)-2,3-dihydro-1H-inden-1-yl)carbamate] had a pIC50 of 6.85. `O=C(NC1CCc2cc(-c3ccc(OC(F)(F)F)cc3)ccc21)O[C@@H]1CN2CCC1CC2` (stereo partly drawn) [Example 4, (S)-quinuclidin-3-yl (5-(4-(trifluoromethoxy)phenyl)-2,3-dihydro-1H-inden-1-yl)carbamate] showed a pIC50 of 7.02. `O=C(NC1CCc2cc(-c3cccc(F)c3)ccc21)O[C@@H]1CN2CCC1CC2` (stereo partly drawn) [Example 5, (S)-quinuclidin-3-yl (5-(3-fluorophenyl)-2,3-dihydro-1H-inden-1-yl)carbamate] had a pIC50 of 7.15. Next, `O=C(NC1CCc2cc(-c3cccc(Cl)c3)ccc21)O[C@@H]1CN2CCC1CC2` (stereo partly drawn) [Example 6, (S)-quinuclidin-3-yl (5-(3-chlorophenyl)-2,3-dihydro-1H-inden-1-yl)carbamate]: 7.40. The figure for `O=C(NC1CCc2cc(-c3cccc(C(F)(F)F)c3)ccc21)O[C@@H]1CN2CCC1CC2` (stereo partly drawn) [Example 7, (S)-quinuclidin-3-yl (5-(3-(trifluoromethyl)phenyl)-2,3-dihydro-1H-inden-1-yl)carbamate] is 7.43; for `O=C(NC1CCc2cc(-c3cccc(OC(F)(F)F)c3)ccc21)O[C@@H]1CN2CCC1CC2` (stereo partly drawn) [Example 8, (S)-quinuclidin-3-yl (5-(3-(trifluoromethoxy)phenyl)-2,3-dihydro-1H-inden-1-yl)carbamate] it is 7.56; for `O=C(NC1CCc2cc(-c3ccccc3F)ccc21)O[C@@H]1CN2CCC1CC2` (stereo partly drawn) [Example 9, (S)-quinuclidin-3-yl (5-(2-fluorophenyl)-2,3-dihydro-1H-inden-1-yl)carbamate] it is 7.03. As to `O=C(NC1CCc2cc(-c3ccccc3Cl)ccc21)O[C@@H]1CN2CCC1CC2` (stereo partly drawn) [Example 10, (S)-quinuclidin-3-yl (5-(2-chlorophenyl)-2,3-dihydro-1H-inden-1-yl)carbamate], the pIC50 is 7.18. `O=C(NC1CCc2cc(-c3ccccc3C(F)(F)F)ccc21)O[C@@H]1CN2CCC1CC2` (stereo partly drawn) [Example 11, (S)-quinuclidin-3-yl (5-(2-(trifluoromethyl)phenyl)-2,3-dihydro-1H-inden-1-yl)carbamate] gave a pIC50 of 6.91.

Turning to `O=C(NC1CCc2cc(-c3ccccc3OC(F)(F)F)ccc21)O[C@@H]1CN2CCC1CC2` (stereo partly drawn) [Example 12, (S)-quinuclidin-3-yl (5-(2-(trifluoromethoxy)phenyl)-2,3-dihydro-1H-inden-1-yl)carbamate], the pIC50 is 7.14. `Cc1ccc(-c2ccc3c(c2)CCC3NC(=O)O[C@@H]2CN3CCC2CC3)cc1` (stereo partly drawn) [Example 13, (S)-quinuclidin-3-yl (5-(p-tolyl)-2,3-dihydro-1H-inden-1-yl)carbamate] gave a pIC50 of 7.38. Next, `O=C(NC1CCc2cc(-c3ccc(OC(F)F)cc3)ccc21)O[C@@H]1CN2CCC1CC2` (stereo partly drawn) [Example 14, (S)-quinuclidin-3-yl (5-(4-(difluoromethoxy)phenyl)-2,3-dihydro-1H-inden-1-yl)carbamate]: 7.27. Take `O=C(NC1CCc2cc(-c3ccc(F)c(F)c3)ccc21)O[C@@H]1CN2CCC1CC2` (stereo partly drawn) [Example 15, (S)-quinuclidin-3-yl (5-(3,4-difluorophenyl)-2,3-dihydro-1H-inden-1-yl)carbamate]: the pIC50 was 7.46. The figure for `O=C(NC1CCc2cc(-c3ccc(F)cc3F)ccc21)O[C@@H]1CN2CCC1CC2` (stereo partly drawn) [Example 16, (S)-quinuclidin-3-yl (5-(2,4-difluorophenyl)-2,3-dihydro-1H-inden-1-yl)carbamate] is 7.25; for `O=C(NC1CCc2cc(-c3cccc(F)c3F)ccc21)O[C@@H]1CN2CCC1CC2` (stereo partly drawn) [Example 17, (S)-quinuclidin-3-yl (5-(2,3-difluorophenyl)-2,3-dihydro-1H-inden-1-yl)carbamate] it is 7.56. With `O=C(NC1CCc2cc(-c3cc(F)ccc3F)ccc21)O[C@@H]1CN2CCC1CC2` (stereo partly drawn) [Example 18, (S)-quinuclidin-3-yl (5-(2,5-difluorophenyl)-2,3-dihydro-1H-inden-1-yl)carbamate], the pIC50 is 7.50. `O=C(NC1CCc2cc(-c3cc(F)cc(F)c3)ccc21)O[C@@H]1CN2CCC1CC2` (stereo partly drawn) [Example 19, (S)-quinuclidin-3-yl (5-(3,5-difluorophenyl)-2,3-dihydro-1H-inden-1-yl)carbamate] showed a pIC50 of 7.69. `O=C(NC1CCc2cc(-c3ccc(F)c(F)c3F)ccc21)O[C@@H]1CN2CCC1CC2` (stereo partly drawn) [Example 20, (S)-quinuclidin-3-yl (5-(2,3,4-trifluorophenyl)-2,3-dihydro-1H-inden-1-yl)carbamate] gave a pIC50 of 6.90. `O=C(NC1CCc2cc(-c3cc(F)c(F)cc3F)ccc21)O[C@@H]1CN2CCC1CC2` (stereo partly drawn) [Example 21, (S)-quinuclidin-3-yl (5-(2,4,5-trifluorophenyl)-2,3-dihydro-1H-inden-1-yl)carbamate]: the pIC50 was 6.90. Compound `O=C(NC1CCc2cc(-c3cc(Cl)cc(Cl)c3)ccc21)O[C@@H]1CN2CCC1CC2` (stereo partly drawn) [Example 22, (S)-quinuclidin-3-yl (5-(3,5-dichlorophenyl)-2,3-dihydro-1H-inden-1-yl)carbamate] showed a pIC50 of 7.05. On to `O=C(NC1CCc2cc(-c3ccc(Cl)c(Cl)c3)ccc21)O[C@@H]1CN2CCC1CC2` (stereo partly drawn) [Example 23, (S)-quinuclidin-3-yl (5-(3,4-dichlorophenyl)-2,3-dihydro-1H-inden-1-yl)carbamate], for which the pIC50 was 7.20.

Consider `O=C(NC1CCc2cc(-c3cc(Cl)ccc3Cl)ccc21)O[C@@H]1CN2CCC1CC2` (stereo partly drawn) [Example 24, (S)-quinuclidin-3-yl (5-(2,5-dichlorophenyl)-2,3-dihydro-1H-inden-1-yl)carbamate], for which the pIC50 was 7.76. `O=C(NC1CCc2ccc(-c3ccc(F)cc3)cc21)O[C@@H]1CN2CCC1CC2` (stereo partly drawn) [Example 25, (S)-quinuclidin-3-yl (6-(4-fluorophenyl)-2,3-dihydro-1H-inden-1-yl)carbamate] had a pIC50 of 6.98. Next, `O=C(NC1CCc2ccc(-c3ccc(Cl)cc3)cc21)O[C@@H]1CN2CCC1CC2` (stereo partly drawn) [Example 26, (S)-quinuclidin-3-yl (6-(4-chlorophenyl)-2,3-dihydro-1H-inden-1-yl)carbamate]: 7.17. `O=C(NC1CCc2ccc(-c3ccc(C(F)(F)F)cc3)cc21)O[C@@H]1CN2CCC1CC2` (stereo partly drawn) [Example 27, (S)-quinuclidin-3-yl (6-(4-(trifluoromethyl)phenyl)-2,3-dihydro-1H-inden-1-yl)carbamate] showed a negative logarithm of the IC50 (pIC50) of 7.45.

Turning to `O=C(NC1CCc2ccc(-c3ccc(OC(F)(F)F)cc3)cc21)O[C@@H]1CN2CCC1CC2` (stereo partly drawn) [Example 28, (S)-quinuclidin-3-yl (6-(4-(trifluoromethoxy)phenyl)-2,3-dihydro-1H-inden-1-yl)carbamate], the pIC50 was 7.28.

These data come from US12522602B2, “Derivatives having 2,3-dihydro-1H-indene or 2,3-dihydrobenzofuran moiety or pharmaceutically acceptable salt thereof and pharmaceutical compositions comprising the same” (YUHAN CORPORATION, priority 2019, dated 2026).
